Test results published in PMC6335623, “A computationally designed binding mode flip leads to a novel class of potent tri-vector cyclophilin inhibitors” (Chemical Science, 2018).
Where two headings read alike, the source gives them in different places. Values belong to the compound of their own block, whether it stands above or below them.

Key:
CypA = biological target: T1, CypA (Homo sapiens, UniProt P62937); test: Isothermal titration calorimetry (ITC), ester series, direct titration; conditions: 25 °C, 50 mM phosphate buffer pH 6.5; single experiments; uncertainties from fit to one-site binding model; n.b. = no binding observed at the maximum concentration tested
T1 construct: His-tag (TEV-cleavable) (cleaved yes); made in house; host or cells: E. coli C41 BL21(DE3) ('C41 BL21(DH3)' [sic]); plasmid from the Edinburgh Protein Production Facility
Procedure: The molecular weights of HisCypA and free CypA are 20.893 and 18.070 kDa, respectively. Protein concentration was determined by measuring the absorbance at 280 nm and the extinction coefficients 14440 and 8480 M-1 cm-1, respectively.
Isothermal Titration Calorimetry (ITC)
ITC1 – Ester series: Instrument and experimental setup
All ITC experiments for the ester series compounds were carried out at 25 °C on a MicroCal Auto iTC200 (GE Healthcare) instrument. The buffer used in the titrations of the compounds belonging to the ester series (1 – 12) was 50 mM phosphate buffer, pH 6.5 and the concentration of DMSO was 2% v/v for all the compounds, unless otherwise stated in Table S1. Final compound solutions were heated to 65 °C and/or sonicated prior to the experiment. Each experiment consisted of an initial injection of 0.4 μL followed by nineteen 2 μL injections and in most of cases for these compounds, the “continue injections” protocol was used leaving the cell intact and performing a second series of titrations using the above protocol to achieve saturation. Control experiments were performed, where each compound was titrated into buffer and when small amount of heat was detected due to heat of dilution, it was subtracted when processing the data using a linear fit method. A more detailed setup for each experiment is depicted in Table S6. In all cases the first injection was omitted from the data processing. All data were analysed using the MicroCal PEAQ-ITC […]
(Wiseman constant) is very small, a fixed stoichiometry to 1 was applied during the non-linear regression of […]
the duration of the experiment.

MDA-MB-231_NLG cells = test: cells; format: cell-based; conditions: 120 hours treatment
Procedure: The tumorigenic, breast, epithelial adenocarcinoma cell lines MDA-MB-231_NLG and the normal, lung fibroblast cell line, IMR90 were cultured as adherent monolayers in DMEM with 10% volume FBS in an atmosphere with 5% CO2 and 95% humidity and were routinely sub-cultured upon reaching 80-90% confluence. MDA-MB-231_NLG cells are a variant of MDA-MB-231 cells, expressing nuclear-restricted green fluorescent protein; they were produced by stable transduction of MDA-MB-231 cells with NucLight Green lentivirus (Essen Bioscience), following the manufacturer’s protocol.
Image-based Cell Viability Assays
Cells were seeded at a density of 500 cells per well in cell culture medium in 384-well cell culture plates and allowed to adhere overnight (about 16 hours), incubated in a humidified atmosphere with 5% CO2.
Subsequently, cell culture medium was refreshed, supplemented with Draq 7 (3µM final concentration) and test compound at the indicated concentrations with three wells being treated for each condition tested. Cells were then returned to the cell culture incubator and imaged with a 10X objective every 3 hours for 120 hours using an IncuCyte ZOOM microscope from Essen Bioscience.
Using the IncuCyte ZOOM software, custom image analysis procedures were developed and applied for each cell line to determine cell confluency, cell number and number of dead cells over the time course of the experiment. Phase contrast was used to determine relative area of each image occupied by cells (confluency), while green nuclear counts were used to determine number of MDA-MB-231_NLG cells and red nuclear counts were used to determine number of dead (Draq7-positive) cells. […]
growth inhibition) being determined by fitting non-linear regression curves to the data and extrapolating the required values using GraphPad Prism 6. Statistical analyses in cell viability assays to compare the effect of compound treatment to treatment with vehicle were performed using GraphPad Prism 6 (2-way ANOVA with Bonferroni correction post hoc).

His-CypB = biological target: T2, His-CypB (Homo sapiens, UniProt P23284); test: biochemical; format: binding; conditions: 25 °C, mean ± 1σ from three repeat experiments; read-out: Kd (SPR) CypB
T2 construct: made in house; host or cells: E. coli C41 BL21(DE3) ('C41 BL21(DH3)' [sic]); plasmid from the Edinburgh Protein Production Facility
Procedure: (§1) injection protocol (Fig. S9B). […]
(§2) using the same instrument parameters was performed (Fig. S9A).
(§3) Surface Plasmon Resonance (SPR)
(§4) SPR1 – SPR equipment and reagents
(§5) SPR measurements were performed on a BIAcore T200 instrument (GE Healthcare). Ni2+- nitrilotriacetic acid (NTA) sensor chips, 1-ethyl-3-(3- diaminopropyl) carbodiimide hydrochloride (EDC) and Nhydroxysuccinimide (NHS) were purchased from GE Healthcare.
(§6) SPR2 – Immobilization and covalent stabilizations of His-Cyps
(§7) Pure His-cyclophilins were immobilized and covalently stabilized on the NTA sensor chip according to the protocol described [Wear et al., 2017, FEBS OpenBio], using 200 nM concentrations of each protein, in Running Buffer (PBS, pH 7.4; 0.05% surfactant P20, 2% v/v ethanol; 50 µM EDTA), at 30 µl min-1 with 60 second contact times on the activated NTA surfaces.
(1 picture or pasted object on this page, not shown here) […]
Buffer (PBS, pH 7.4, 50 µM mM EDTA; 0.05 % v/v surfactant P20; 2 % v/ v ethanol), were injected over the sensor surface, at 100 µl.min -1 with a 90 s contact time and a 90 s dissociation time. […] The apparent on-rate (k+) and off-rate (k-) constants and the equilibrium dissociation constant (K d) were calculated from reference corrected sensorgrams by global fitting of a 1:1 binding model, including a mass transport term, using analysis software ( v.2.02, GE Healthcare) provided with the BIAcore T200 […]

His-CypA = biological target: T3, His-CypA (Homo sapiens, UniProt P62937); test: Surface plasmon resonance (SPR) kinetic titration, BIAcore T200; format: binding
T3 construct: made in house; host or cells: E. coli C41 BL21(DE3) ('C41 BL21(DH3)' [sic]); plasmid from the Edinburgh Protein Production Facility
Procedure: as §1, §2, §3, §4, §5, §6, §7
(§8) (1 picture or pasted object on this page, not shown here)
(§9) Specific surface protein activity was assayed by passing saturating […]
(§10) SPR3 – Kinetic titration experiments
(§11) Buffer (PBS, pH 7.4, 50 µM mM EDTA; 0.05 % v/v surfactant P20; 2 % v/ v ethanol), were injected over the sensor surface, at 100 µl.min -1 with a 90 s contact time and a 90 s dissociation time. The sensor surface was regenerated between experiments by dissociating any formed complex in running buffer for at least 1,200 seconds. The apparent on-rate (k+) and off-rate (k-) constants and the equilibrium dissociation constant (K d) were calculated from reference corrected sensorgrams by global fitting of a 1:1 binding model, including a mass transport term, using analysis software ( v.2.02, GE Healthcare) provided with the BIAcore T200 […]
(§12) Buffer (PBS, pH 7.4, 50 µM mM EDTA; 0.05 % v/v surfactant P20; 2 % v/v ethanol), were injected over the sensor surface, at 100 µl.min-1 with a 15 s contact time and a 600 s dissociation time. The sensor surface was […]

His-CypD = biological target: T4, His-CypD (Homo sapiens, UniProt P30405); test: as above; format: binding; conditions: 25 °C, mean ± 1σ from three repeat experiments
T4 construct: made in house; host or cells: E. coli C41 BL21(DE3) ('C41 BL21(DH3)' [sic]); plasmid from the Edinburgh Protein Production Facility
Procedure: as §1, §2, §3, §4, §5, §6, §7, §8, §9, §10, §11, §12

T1 sequence (P62937 whole entry): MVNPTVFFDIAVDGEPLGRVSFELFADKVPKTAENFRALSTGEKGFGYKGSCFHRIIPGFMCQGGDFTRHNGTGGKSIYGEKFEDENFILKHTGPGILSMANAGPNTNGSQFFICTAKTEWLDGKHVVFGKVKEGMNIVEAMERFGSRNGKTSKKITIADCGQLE
T3 sequence (P62937 whole entry): as above
T2 sequence (P23284 34-216): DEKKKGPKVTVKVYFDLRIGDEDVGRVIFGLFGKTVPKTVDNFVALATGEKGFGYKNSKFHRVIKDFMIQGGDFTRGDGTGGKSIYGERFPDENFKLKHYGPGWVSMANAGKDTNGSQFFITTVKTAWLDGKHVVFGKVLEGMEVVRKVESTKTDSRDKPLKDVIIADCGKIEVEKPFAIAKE
T4 sequence (P30405 30-207): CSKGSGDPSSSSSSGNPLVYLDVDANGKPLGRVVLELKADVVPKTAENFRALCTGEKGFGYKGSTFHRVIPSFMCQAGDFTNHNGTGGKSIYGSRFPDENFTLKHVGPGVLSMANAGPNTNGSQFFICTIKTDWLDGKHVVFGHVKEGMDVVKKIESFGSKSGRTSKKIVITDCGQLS

Compound: CCOC(=O)CNC(=O)N(Cc1ccc(N)cc1)C(C)C.Cl [Compound 3]
CypA Kd (ITC) (CypA): n.b and n.b. and inactive

Compound: C#CCN(Cc1ccc(N)cc1)C(=O)NCC(=O)N1CCCC1c1ccccc1Br (stereo not drawn) [Compound 13]
cell death (dead cells) (MDA-MB-231_NLG cells): Negligible cell death | GI50 (MDA-MB-231_NLG cells; Homo sapiens, mean with 95% CI [lower limit, upper limit], three independent experiments, read-out: GI50, growth inhibition): 5.13 µM | Kd (His-CypB): 1.4 ± 0.4 µM | Kd (His-CypA; 25 °C, mean ± 1σ from three repeat experiments, read-out: Kd (SPR) CypA): 3.2 ± 1.3 µM | Kd (His-CypD): 0.2 ± 0.1 µM

Compound: CCOC(=O)Cn1cc(CN(Cc2ccc(N)cc2)C(=O)NCC(=O)N2CCCC2c2ccccc2Br)nn1 (stereo not drawn) [Compound 16]
Kd (His-CypB): 1.9 ± 0.9 µM | Kd (His-CypA): 4.3 ± 1 µM | Kd (His-CypD): 1 ± 0.4 µM

Second part, the compound after the results:

Kd (CypA): 266 ± 3 µM
Compound: CCCN(Cc1ccc(N)cc1)C(=O)NCC(=O)OCC [Compound 4]

CypA Kd (ITC) (CypA): very weak binders | Kd (CypA): 993 ± 20 µM
Compound: CCOC(=O)CNC(=O)N(CC#N)Cc1ccc(N)cc1.Cl [Compound 6]

CypA Kd (ITC) (CypA): n.b and n.b. and very weak binders
Compound: CCOC(=O)CNC(=O)N(Cc1ccc(N)cc1)CC1CC1.Cl [Compound 7]

CypA Kd (ITC) (CypA): n.b and n.b. and inactive
Compound: CCOC(=O)CNC(=O)N(Cc1ccc(N)cc1)C1CCNCC1.Cl.Cl [Compound 11]

GI50, growth inhibition (MDA-MB-231_NLG cells; mean with 95% CI [lower limit, upper limit], three independent experiments): inactive
Compound: Cl.Cn1cc(CN(Cc2ccc(N)cc2)C(=O)NCC(=O)N2CCCC2c2ccccc2Br)nn1 (stereo not drawn) [Compound 14]
